For test [1], the target named is T1, HCV RNA Polymerase, recombinant NS5B with C-terminal 21 amino acid deletion, genotype 1a strain H77 (Hepatitis C virus genotype 1a, UniProt P27958).
T1 construct: fused on or other part: C-terminal 6His-tag
The test is described as follows: In vitro HCV RNA-dependent RNA polymerase inhibition assay, genotype 1a C-terminally truncated (delta21) enzyme. The test is classed as biochemical, HCV genotype 1a. The following applies: genotype 1a delta21 NS5B enzyme; read-out: IC50 in delta-21 1a enzyme inhibition assay. An excerpt: (§1) Incorporation of [^33P]-GMP into RNA was followed by absorption of the biotin labelled RNA polymer by streptavidin containing SPA beads. A synthetic template consisting of biotinylated 13mer-oligoG hybridised to polyrC was used as a homopolymer substrate.
a) Genotype 1a C-Terminally Truncated (delta21) Enzyme
HCV RNA Polymerase [Recombinant NS5B with C-terminal 21 amino acid deletion and C-terminal 6His-tag (Ferrari et al. J. Virol, 73(2), 1999, 1649. ‘Characterization of soluble hepatitis C virus RNA-dependent RNA polymerase expressed in Escherichia coli.’) expressed in E. coli and purified to homogeneity] was added to 25 nM final concentration. Polymerase of genotype 1a was from strain H77 (Yanagi, M., Purcell, R. H., Emerson, S. U. & Bukh, J. (1997), Proceedings of the National Academy of Sciences, USA 94, 8738-8743) containing a sequence change from valine to isoleucine at position 180.
Reaction Conditions were 25 nM enzyme, 1.5 μg/ml oligo-rG13/poly-rC and 0.2 μCi α-^33P-GTP in 0.5 μM GTP (20 Ci/mMol), 20 mM Tris pH 7.5, 23 mM NaCl, 3 mM DTT, 5 mM MgCl2, 1 mM MnCl2.
Enzyme was diluted to 500 nM concentration in 20 mM Tris-HCl, pH 7.5, 25 mM NaCl and 3 mM DTT.
4× concentrated assay buffer mix was prepared using 1M Tris-HCl, pH7.5 (1 mL), 5M NaCl (0.25 mL), 1M DTT (0.12 mL) and Water (8.63 mL), Total 10 mL.
2× concentrated first reagent was prepared using 4× concentrated assay buffer mix (5 μL), 40 u/μL RNasin (0.1 μL), 20 μg/mL polyrC/biotinylated-oligoG (1.6 μL), 500 nM enzyme (1 μL) and Water (2.3 μL), Total 10 μl/well.
2× concentrated second reagent was prepared using 1M MgCl2 (0.1 μL), 1M MnCl2 (0.02 μL), 25 μM GTP (0.4 μL), α-[^33P]-GTP (10 μCi/μL, 0.02 μL) and water (9.5 μL), Total 10 μL/well.
The assay was set up using compound (1 μL in 100% DMSO), first reagent (10 μL), and second reagent (10 μL), Total 21 μL.
The reaction was performed in a U-bottomed, white, 96-well plate. The reaction was mixed on a plate-shaker, after addition of the Enzyme, and incubated for 1 h at 22° C. After this time, the reaction was stopped by addition of 60 μL 1.5 mg/ml streptavidin SPA beads (Amersham) in 0.1 M EDTA in PBS. The beads were incubated with the reaction mixture for 1 h at 22° C. after which 100 μL 0.1 M EDTA in PBS was added. The plate was sealed, mixed centrifuged and incorporated radioactivity determined by counting in a Trilux (Wallac) or Topcount (Packard) Scintillation Counter.
After subtraction of background levels without enzyme, any reduction in the amount of radioactivity incorporated in the presence of a compound, compared to that in the absence, was taken as a measure of the level of inhibition. Ten concentrations of compounds were tested in three- or fivefold dilutions. From the counts per minute, percentage of inhibition at highest concentration tested or IC50s for the compounds were calculated using GraFit 3, GraFit 4 or GraFit 5 (Erithacus Software Ltd.) software packages or a data evaluation macro for Excel based on XLFit Software (IDBS).

Test [2] has as its target T2, HCV RNA Polymerase, recombinant full-length NS5B, genotype 1b (Hepatitis C virus genotype 1b, UniProt Q9WMX2).
T2 construct: Recombinant full-length NS5B; made in house
The test is described as follows: In vitro HCV RNA-dependent RNA polymerase inhibition assay, genotype 1b full-length enzyme. It is filed as biochemical, HCV genotype 1b. Particulars: genotype 1b full-length NS5B enzyme. The protocol: as §1
b) Genotype 1b Full-Length Enzyme
Reaction Conditions were 0.5 μM [^33P]-GTP (20 Ci/mMol), 1 mM Dithiothreitol, 20 mM MgCl2, 5 mM MnCl2, 20 mM Tris-HCl, pH7.5, 1.6 μg/mL polyC/0.256 μM biotinylated oligoG13, 10% glycerol, 0.01% NP-40, 0.2 u/μL RNasin and 50 mM NaCl.
HCV RNA Polymerase (Recombinant full-length NS5B (Lohmann et al, J. Virol. 71 (11), 1997, 8416. ‘Biochemical properties of hepatitis C virus NS5B RNA-dependent RNA polymerase and identification of amino acid sequence motifs essential for enzymatic activity’) expressed in baculovirus and purified to homogeneity) was added to 4 nM final concentration.
5× concentrated assay buffer mix was prepared using 1M MnCl2 (0.25 mL), glycerol (2.5 mL), 10% NP-40 (0.025 mL) and Water (7.225 mL), Total 10 mL.
2× concentrated enzyme buffer contained 1M-Tris-HCl, pH7.5 (0.4 mL), 5M NaCl (0.2 mL), 1M-MgCl2 (0.4 mL), glycerol (1 mL), 10% NP-40 (10 μL), 1M DTT (20 μL) and water (7.97 mL), Total 10 mL.
Substrate Mix was prepared using 5× Concentrated assay Buffer mix (4 μL), [^33P]-GTP (10 μCi/μL, 0.02 μL), 25 μM GTP (0.4 μL), 40 u/μL RNasin (0.1 μL), 20 μg/mL polyrC/biotinylated-oligoG (1.6 μL), and Water (3.94 μL), Total 10 μL.
Enzyme Mix was prepared by adding 1 mg/ml full-length NS5B polymerase (1.5 μL) to 2.81 mL 2×-concentrated enzyme buffer.
The Assay was set up using compound (1 μL), Substrate Mix (10 μL), and Enzyme Mix (added last to start reaction) (10 μL), Total 21 μL.
The reaction was performed in a U-bottomed, white, 96-well plate. The reaction was mixed on a plate-shaker, after addition of the Enzyme, and incubated for 1 h at 22° C. After this time, the reaction was stopped by addition of 40 μL 1.875 mg/ml streptavidin SPA beads in 0.1 M EDTA. The beads were incubated with the reaction mixture for 1 h at 22° C. after which 120 μL 0.1 M EDTA in PBS was added. The plate was sealed, mixed centrifuged and incorporated radioactivity determined by counting in a Trilux (Wallac) or Topcount (Packard) Scintillation Counter.
After subtraction of background levels without enzyme, any reduction in the amount of radioactivity incorporated in the presence of a compound, compared to that in the absence, was taken as a measure of the level of inhibition. Ten concentrations of compounds were tested in three- or fivefold dilutions. From the counts, percentage of inhibition at highest concentration tested or IC50s for the compounds were calculated using GraFit 3, GraFit 4 or GraFit 5 (Erithacus Software Ltd.) software packages or a data evaluation macro for Excel based on XLFit Software (IDBS).

In patent US20090227600A1, “4-(PYRAZINE-2-YL) -PYRROLIDINE -2-CARBOXYLIC ACID COMPOUNDS AND DERIVATIVES THEREOF AS HEPATITIS C VIRUS INHIBITORS” (priority 2004, published 2009) one finds IC50 data, which are given here for twelve compounds.

T1 sequence (P27958 2421-3011 V2599I, form open): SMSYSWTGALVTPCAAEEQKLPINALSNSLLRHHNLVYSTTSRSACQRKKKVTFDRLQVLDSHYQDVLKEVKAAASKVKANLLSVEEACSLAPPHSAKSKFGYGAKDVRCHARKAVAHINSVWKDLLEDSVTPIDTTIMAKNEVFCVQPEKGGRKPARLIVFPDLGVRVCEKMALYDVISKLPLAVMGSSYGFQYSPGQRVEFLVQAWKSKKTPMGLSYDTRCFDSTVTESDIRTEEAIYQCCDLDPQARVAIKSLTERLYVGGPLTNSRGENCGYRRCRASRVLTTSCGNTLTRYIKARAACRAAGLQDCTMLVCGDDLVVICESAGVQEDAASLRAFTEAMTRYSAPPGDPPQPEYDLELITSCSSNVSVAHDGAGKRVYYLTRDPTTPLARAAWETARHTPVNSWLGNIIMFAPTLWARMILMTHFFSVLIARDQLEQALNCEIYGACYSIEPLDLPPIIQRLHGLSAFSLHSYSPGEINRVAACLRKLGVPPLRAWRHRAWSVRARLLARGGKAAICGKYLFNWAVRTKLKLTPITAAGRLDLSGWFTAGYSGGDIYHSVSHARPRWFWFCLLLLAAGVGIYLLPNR
T2 sequence (Q9WMX2 2420-3010): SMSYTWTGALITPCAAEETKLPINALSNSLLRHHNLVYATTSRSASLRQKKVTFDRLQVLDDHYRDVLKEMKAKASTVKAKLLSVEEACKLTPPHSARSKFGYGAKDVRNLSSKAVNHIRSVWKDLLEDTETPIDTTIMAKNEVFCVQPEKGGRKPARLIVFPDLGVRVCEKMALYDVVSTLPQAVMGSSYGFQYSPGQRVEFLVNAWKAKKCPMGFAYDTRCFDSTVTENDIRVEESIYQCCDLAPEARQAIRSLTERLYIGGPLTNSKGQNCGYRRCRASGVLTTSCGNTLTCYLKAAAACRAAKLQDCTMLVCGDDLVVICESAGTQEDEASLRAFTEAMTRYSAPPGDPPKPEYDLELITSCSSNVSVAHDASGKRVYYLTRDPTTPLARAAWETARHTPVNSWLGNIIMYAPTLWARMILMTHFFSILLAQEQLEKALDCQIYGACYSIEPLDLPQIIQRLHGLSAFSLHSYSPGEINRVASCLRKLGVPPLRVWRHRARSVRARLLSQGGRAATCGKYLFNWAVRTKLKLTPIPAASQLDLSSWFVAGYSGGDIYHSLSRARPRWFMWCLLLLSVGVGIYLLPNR

For the compound `COc1cc(C(=O)N2[C@@H](c3nccs3)[C@@H](c3cnccn3)C[C@@]2(Cn2cccn2)C(=O)O)ccc1C(C)(C)C` (racemic) [Example 11, rel-(2R,4S,5R)-1-(3-Methoxy-4-tert-butylbenzoyl)-4-(pyrazin-2-yl)-2-(1H-pyrazol-1-ylmethyl)-5-(1,3-thiazol-2-yl)pyrrolidine-2-carboxylic acid], the IC50 was less than 150 nM in test [1] and less than 100 nM in test [2].

As to `COc1cc(C(=O)N2[C@@H](c3ncc(C)s3)[C@@H](c3cnccn3)C[C@@]2(Cc2nccs2)C(=O)O)ccc1C(C)(C)C` (racemic) [Example 13, rel-(2R,4S,5R)-1-(3-Methoxy-4-tert-butylbenzoyl)-5-(5-methyl-1,3-thiazol-2-yl)-4-(pyrazin-2-yl)-2-(1,3-thiazol-2-ylmethyl)pyrrolidine-2-carboxylic acid], the IC50 in test [1] is less than 150 nM; in test [2] it was less than 100 nM.

Regarding `COc1cc(C(=O)N2[C@@H](c3ncc(C)s3)[C@@H](c3cnccn3)C[C@@]2(Cc2cscn2)C(=O)O)ccc1C(C)(C)C` (racemic) [Example 15, rel-(2R,4S,5R)-1-(3-Methoxy-4-tert-butylbenzoyl)-5-(5-methyl-1,3-thiazol-2-yl)-4-(pyrazin-2-yl)-2-(1,3-thiazol-4-ylmethyl)pyrrolidine-2-carboxylic acid], the results for the IC50 in test [1] and in test [2] were less than 150 nM and less than 100 nM, respectively.

`COc1cc(C(=O)N2[C@@H](c3nccs3)[C@@H](c3cnccn3)C[C@@]2(CC(C)C)C(=O)O)ccc1C(C)(C)C` (single isomer, unassigned; enantiomer a) [Compound B, reference compound]: the IC50 is greater than 1000 nM in test [1] and greater than 500 nM in test [2].

Turning to `COc1cc(C(=O)N2[C@@H](c3nccs3)[C@@H](c3cnccn3)C[C@@]2(Cc2cscn2)C(=O)O)ccc1C(C)(C)C` (single isomer, unassigned; enantiomer a) [Example 2], the IC50 in test [1] is less than 150 nM; in test [2] it was less than 100 nM.

Take `COc1cc(C(=O)N2[C@@H](c3nccs3)[C@@H](c3cnccn3)C[C@@]2(Cc2nccs2)C(=O)O)ccc1C(C)(C)C` (single isomer, unassigned; enantiomer a) [Example 4]: the IC50 in test [1] is less than 150 nM; in test [2], less than 100 nM.

For `COc1cc(C(=O)N2[C@@H](c3ncc(C)s3)[C@@H](c3cnccn3)C[C@@]2(Cc2ccsn2)C(=O)O)ccc1C(C)(C)C` (single isomer, unassigned; enantiomer a) [Example 6], the IC50 in test [1] is less than 150 nM; in test [2] it was less than 100 nM.

As for `COc1cc(C(=O)N2[C@@H](c3nccs3)[C@@H](c3cnccn3)C[C@@]2(Cc2ccsn2)C(=O)O)ccc1C(C)(C)C` (single isomer, unassigned; enantiomer a) [Example 8], the IC50 in test [1] was less than 150 nM; in test [2] it was less than 100 nM.

Consider `COc1cc(C(=O)N2[C@@H](c3ncc(C)s3)[C@@H](c3cnccn3)C[C@@]2(Cn2cccn2)C(=O)O)ccc1C(C)(C)C` (single isomer, unassigned; enantiomer a) [Example 10], for which the figures for the IC50 in test [1] and in test [2] were less than 150 nM and less than 100 nM, respectively.

Regarding `COc1cc(C(=O)N2[C@@H](c3nccs3)[C@@H](c3cnccn3)C[C@@]2(Cn2cccn2)C(=O)O)ccc1C(C)(C)C` (single isomer, unassigned; enantiomer a) [Example 12], the figures for the IC50 in test [1] and in test [2] were less than 150 nM and less than 100 nM, respectively.

Turning to `COc1cc(C(=O)N2[C@@H](c3ncc(C)s3)[C@@H](c3cnccn3)C[C@@]2(Cc2nccs2)C(=O)O)ccc1C(C)(C)C` (single isomer, unassigned; enantiomer a) [Example 14], the IC50 was less than 150 nM in test [1] and less than 100 nM in test [2].

As for `COc1cc(C(=O)N2[C@@H](c3ncc(C)s3)[C@@H](c3cnccn3)C[C@@]2(Cc2cscn2)C(=O)O)ccc1C(C)(C)C` (single isomer, unassigned; enantiomer a) [Example 16], the results for the IC50 in test [1] and in test [2] were less than 150 nM and less than 100 nM, respectively.
